Experimental data from paper PMC11758266, “Lipid-Modulated, Graduated Inhibition of N-Glycosylation Pathway Priming Suggests Wide Tolerance of ER Proteostasis to Stress” (ACS Central Science, 2024).

Key:
HEK293 cells = assay: HEK-CellCount readout (stained nuclei of live cells, internal cytotoxicity measure); type: cell-based, human
Description: Here, the nuclear localization of the transcription factor ATF4 (which leads to subsequent expression of CHOP and cell death) was used as a phenotypic marker of ER stress (Figure 3A). Use of multi(384)-well plate format allowed wild-type HEK cells to be treated with analogues over a titrating concentration range of 0.5 nM to […] for 6 h in a quantitative manner (Figure 3C). After fixation with paraformaldehyde, high-content cellular fluorescence microscopy imaging was used to both determine the site and quantify the location of ATF4[32] (Figure 3B,C). […] In this way, confocal fluorescence microscopy at excitation wavelengths of 405 and 488 nm produced, as a direct primary readout, the intensity of ATF4 located in the nucleus as well as the ratio of ATF4 located between the nucleus (colocalized with Hoechst) and cytoplasm (see Figure 3B,C for representative images and the Supporting Information for channel-by-channel images). Concurrent readout of the number of stained nuclei (Hoechst nuclei stain) in live cells was also used as an internal cytotoxicity measure. This high-content method allowed detailed quantitative cellular dose responses to be determined with precision (Figure 3D). […]
Figure 3 High-content phenotypic screen for putative ER stress inducers. […] Plates were imaged using an OPERA-Phenix high-content imaging platform with fluorescence excitation at 405 and 488 nm. […]

DPAGT1 = target: T1, DPAGT1 (Homo sapiens, UniProt Q9H3H5); assay: Heat-induced denaturation assay of DPAGT1 with bound ligand; type: binding
T1 sequence (Q9H3H5 1-408): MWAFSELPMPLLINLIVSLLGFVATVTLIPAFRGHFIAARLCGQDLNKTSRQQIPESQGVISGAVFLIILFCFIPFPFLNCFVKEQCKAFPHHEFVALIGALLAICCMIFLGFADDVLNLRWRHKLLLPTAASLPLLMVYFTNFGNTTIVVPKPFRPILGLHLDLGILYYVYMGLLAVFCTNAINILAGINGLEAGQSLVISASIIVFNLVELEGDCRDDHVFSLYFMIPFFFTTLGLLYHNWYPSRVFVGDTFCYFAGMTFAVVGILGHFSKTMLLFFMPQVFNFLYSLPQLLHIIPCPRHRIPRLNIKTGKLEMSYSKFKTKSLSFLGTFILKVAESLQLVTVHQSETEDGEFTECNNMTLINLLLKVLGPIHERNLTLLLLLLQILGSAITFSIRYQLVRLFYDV
Source text: The structure of DPAGT1 in complex with the archetypal scaffold natural product tunicamycin[21] […] Trp122 moves so as to use its indole moiety to hydrophobically provide a binding “cap” or “lid” over the proximal portion of the 10′-N lipid chain.

Substance: tunicamycin [reference compound]
- cell death (in words) (HEK293 cells): causing cell death
- EC50 (HEK293 cells; 6 h, live cell nuclei count, read-out: EC50, cell death): ~10 µM
- Tm,1/2 of DPAGT1 bound to ligand (DPAGT1; heat-induced denaturation, DPAGT1 alone 51.7 ± 0.2 °C): 83.0 ± 0.4 °C
- ΔTm,1/2 of DPAGT1 (DPAGT1; versus DPAGT1 alone): 31.3 °C
